This note sets out measurements from PMC11172384, “Specific Mutations Reverse Regulatory Effects of Adenosine Phosphates and Increase Their Binding Stoichiometry in CBS Domain-Containing Pyrophosphatase” (International Journal of Molecular Sciences, 2024).

In assay [1] the target is T1, dhPPase (Desulfitobacterium hafniense CBS-PPase) (Desulfitobacterium hafniense, UniProt B8FP42).
T1 construct: gene Dhaf_1515; full-length, tag-less, recombinant in E. coli BL21 (pET-42b); homotetramer
T1 sequence (B8FP42 1-544): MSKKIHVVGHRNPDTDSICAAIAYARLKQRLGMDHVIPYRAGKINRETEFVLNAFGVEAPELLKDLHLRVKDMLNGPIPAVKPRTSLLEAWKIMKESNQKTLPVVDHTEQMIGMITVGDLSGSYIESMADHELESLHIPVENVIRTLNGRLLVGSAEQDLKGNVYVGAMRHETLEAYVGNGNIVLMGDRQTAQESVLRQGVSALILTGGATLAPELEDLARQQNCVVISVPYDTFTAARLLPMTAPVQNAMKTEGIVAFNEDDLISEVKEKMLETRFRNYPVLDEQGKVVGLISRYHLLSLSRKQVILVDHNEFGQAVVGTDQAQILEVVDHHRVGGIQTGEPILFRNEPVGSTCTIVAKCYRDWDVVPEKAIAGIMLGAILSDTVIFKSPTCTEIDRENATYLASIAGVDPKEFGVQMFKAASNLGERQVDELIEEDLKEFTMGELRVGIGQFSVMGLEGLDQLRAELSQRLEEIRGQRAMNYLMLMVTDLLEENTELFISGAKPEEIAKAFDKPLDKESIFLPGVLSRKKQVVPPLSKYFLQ
Nature of the assay: isothermal titration calorimetry, single-binding-site model. The conditions noted are these: read-out: KN. The source says: (§1) isothermal titration calorimetry, single-binding-site model on dhPPase (Desulfitobacterium hafniense CBS-PPase)

Assay [2] concerns the target T2, dhPPase (Desulfitobacterium hafniense CBS-PPase) (Desulfitobacterium hafniense, UniProt B8FP42, K100A).
T2 construct: gene Dhaf_1515; full-length, tag-less, recombinant in E. coli BL21 (pET-42b); homotetramer
Described as above. The following applies: read-out: KN.
Description: as §1

In assay [3] the target is T3, dhPPase (Desulfitobacterium hafniense CBS-PPase) (Desulfitobacterium hafniense, UniProt B8FP42, E126A).
T3 construct: gene Dhaf_1515; full-length, tag-less, recombinant in E. coli BL21 (pET-42b); homotetramer
T3 sequence (B8FP42 entry or part of it E126A): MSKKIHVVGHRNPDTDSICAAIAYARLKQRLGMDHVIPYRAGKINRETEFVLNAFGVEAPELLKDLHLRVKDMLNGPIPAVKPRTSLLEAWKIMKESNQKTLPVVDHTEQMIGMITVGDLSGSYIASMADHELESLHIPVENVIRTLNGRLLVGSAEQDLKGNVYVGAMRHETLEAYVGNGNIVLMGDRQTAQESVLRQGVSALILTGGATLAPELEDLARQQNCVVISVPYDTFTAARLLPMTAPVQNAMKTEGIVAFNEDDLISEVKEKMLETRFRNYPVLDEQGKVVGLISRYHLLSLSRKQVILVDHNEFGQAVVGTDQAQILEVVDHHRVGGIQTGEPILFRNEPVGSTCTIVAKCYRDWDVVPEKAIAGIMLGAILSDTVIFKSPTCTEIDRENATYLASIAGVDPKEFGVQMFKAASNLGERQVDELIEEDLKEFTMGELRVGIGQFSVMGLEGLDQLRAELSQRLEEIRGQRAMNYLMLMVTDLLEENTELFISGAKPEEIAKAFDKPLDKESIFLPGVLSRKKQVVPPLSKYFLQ
The assay is described as above. The following applies: read-out: KN.
Description: as §1

The target of assay [4] is T4, dhPPase (Desulfitobacterium hafniense CBS-PPase) (Desulfitobacterium hafniense, UniProt B8FP42, K95A).
T4 construct: gene Dhaf_1515; full-length, tag-less, recombinant in E. coli BL21 (pET-42b); homotetramer
T4 sequence (B8FP42 entry or part of it K95A): as the sequence (B8FP42 entry or part of it E126A) above, with K95A, A126E counted along it
The description is as above. The following applies: read-out: KN.
Description: as §1

In assay [5] the target is T5, dhPPase (Desulfitobacterium hafniense CBS-PPase) (Desulfitobacterium hafniense, UniProt B8FP42, G118M).
T5 construct: gene Dhaf_1515; full-length, tag-less, recombinant in E. coli BL21 (pET-42b); homotetramer
T5 sequence (B8FP42 entry or part of it G118M): as the sequence (B8FP42 entry or part of it E126A) above, with G118M, A126E counted along it
The description is as above. The following applies: read-out: KN.
Description: as §1

Assay [6] concerns the target T6, dhPPase (Desulfitobacterium hafniense CBS-PPase) (Desulfitobacterium hafniense, UniProt B8FP42, G118A).
T6 construct: gene Dhaf_1515; full-length, tag-less, recombinant in E. coli BL21 (pET-42b); homotetramer
The assay is described as above. The following applies: read-out: KN.
Description: as §1

Assay [7] addresses T7, dhPPase (Desulfitobacterium hafniense CBS-PPase) (Desulfitobacterium hafniense, UniProt B8FP42, V117T).
T7 construct: gene Dhaf_1515; full-length, tag-less, recombinant in E. coli BL21 (pET-42b); homotetramer
Nature of the assay: activation of PPi hydrolysis, continuous Pi assay, Hill fit. The conditions noted are these: read-out: Adenosine Phosphate and Parameter Value ^a / Ap4A / K. The format is biochemical. An excerpt: (§2) activation of PPi hydrolysis, continuous Pi assay, Hill fit on dhPPase (Desulfitobacterium hafniense CBS-PPase)

Assay [8] concerns the target T5, dhPPase (Desulfitobacterium hafniense CBS-PPase). The description is as above. Format: biochemical. The following applies: read-out: Adenosine Phosphate and Parameter Value ^a / Ap4A / K.
Description: as §2

The target of assay [9] is T2, dhPPase (Desulfitobacterium hafniense CBS-PPase). The description is as above. Format: biochemical. The conditions noted are these: read-out: Adenosine Phosphate and Parameter Value ^a / Ap4A / K.
Description: as §2

In assay [10] the target is T8, dhPPase (Desulfitobacterium hafniense CBS-PPase) (Desulfitobacterium hafniense, UniProt B8FP42, V117A).
T8 construct: gene Dhaf_1515; full-length, tag-less, recombinant in E. coli BL21 (pET-42b); homotetramer
T8 sequence (B8FP42 entry or part of it V117A): as the sequence (B8FP42 entry or part of it E126A) above, with V117A, A126E counted along it
Described as above. The format is biochemical. The following applies: read-out: Adenosine Phosphate and Parameter Value ^a / Ap4A / K.
Description: as §2

The target in assay [11] is T1, dhPPase (Desulfitobacterium hafniense CBS-PPase). Nature of the assay: continuous Pi assay. The format is biochemical. The following applies: pH 7.2, 25 °C, 5.23 mM MgCl2, 140 µM PPi.

T2 sequence (B8FP42 entry or part of it K100A): as the sequence (B8FP42 entry or part of it E126A) above, with K100A, A126E counted along it
T6 sequence (B8FP42 entry or part of it G118A): as the sequence (B8FP42 entry or part of it E126A) above, with G118A, A126E counted along it
T7 sequence (B8FP42 entry or part of it V117T): as the sequence (B8FP42 entry or part of it E126A) above, with V117T, A126E counted along it

`Nc1ncnc2c1ncn2[C@@H]1O[C@H](COP(=O)(O)OP(=O)(O)O)[C@@H](O)[C@H]1O` [ADP]: the Kd in [1] is 1000 ± 200 nM; in assay [2], 6000 ± 2000 nM; in [3], 600 ± 100 nM.
With `Nc1ncnc2c1ncn2[C@@H]1O[C@H](COP(=O)(O)O)[C@@H](O)[C@H]1O` [AMP], the Kd in [4] came out at 4600 ± 700 nM; in assay [1], 800 ± 300 nM; in assay [5] it was 520 ± 70 nM; in assay [6], 4200 ± 600 nM; in [2] it was 1300 ± 200 nM.
Consider `Nc1ncnc2c1ncn2[C@@H]1O[C@H](COP(=O)(O)OP(=O)(O)OP(=O)(O)O)[C@@H](O)[C@H]1O` [ATP], for which the Kd in [1] was 2100 ± 300 nM.
As for `Nc1ncnc2c1ncn2[C@@H]1O[C@H](COP(=O)(O)OP(=O)(O)OP(=O)(O)OP(=O)(O)OC[C@H]2O[C@@H](n3cnc4c(N)ncnc43)[C@H](O)[C@@H]2O)[C@@H](O)[C@H]1O` [Ap4A], the EC50 in assay [7] was 1.3 ± 0.05 nM; in [8], 28 ± 1 nM; in assay [9], 11.5 ± 0.1 nM; in assay [10], 120 ± 10 nM.
In the case of `O=P(O)(O)OP(=O)(O)O` [PPi], the “continuous Pi assay” value in assay [11] is listed as “The initial rates of PPi hydrolysis were measured using a continuous Pi assay”.
